The results in this text go back to US6548517B2, “Oxindole inhibitors of factor Xa” (Millennium Pharmaceuticals, Inc., priority 2000, dated 2003).

Holding throughout (assay type): biochemical
One assay addresses APC (Homo sapiens, UniProt P04070). In words: APC protease inhibition assay.
The target of the next assay is prothrombinase complex (Homo sapiens, UniProt P00742). The assay is described as follows: prothrombinase inhibition assay, plasma free system. The note with it: read-out: IIASE IC50. The procedure: (§1) The compounds of the present invention are dissolved in buffer to give solutions containing concentrations such that assay concentrations range from 0 to 100 μM. In the assays for thrombin, prothrombinase and factor Xa, a synthetic chromogenic substrate is added to a solution containing test compound and the enzyme of interest and the residual catalytic activity of that enzyme is determined spectrophotometrically. The IC50 of a compound is determined from the substrate turnover. The IC50 is the concentration of test compound giving 50% inhibition of: the substrate turnover.
The prothrombinase inhibition assay was performed in a plasma free system with modifications to the method described by Sinha, U. et al., Thromb. Res., 75, 427-436 (1994). Specifically, the activity of the prothrombinase complex was determined by measuring the time course of thrombin generation using the p-nitroanilide substrate Chromozym TH. The assay consists of preincubation (5 minutes) of selected compounds to be tested as inhibitors with the complex formed from factor Xa (0.5 nM), factor Va (2 nM), phosphatidyl serine:phosphatidyl choline (25:75, 20 μM) in 20 mM TrisHCI buffer, pH 7.5, containing 0.15 M NaCl, 5 mM CaCl2 and 0.1% bovine serum albumin. Aliquots from the complex-inhibitor mixture were added to prothrombin (1 nM) and Chromozym TH (0.1 mM). The rate of substrate cleavage was monitored at 405 nm for two minutes. Eight different concentrations of inhibitor were assayed in duplicate. A standard curve of thrombin generation by an equivalent amount of untreated complex was used for determination of percent inhibition.

Another assay addresses T1, thrombin (Homo sapiens, UniProt P00734).
T1 construct: proteolytic cleavage of its precursor prothrombin at the Arg-Thr linkage at positions 271-272 and the Arg-Ile linkage at positions 320-321
The assay is described as follows: thrombin amidolytic assay (Chromozym TH). The note with it: read-out: IIA IC50. As to the method: as §1
(§2) The factor Xa and thrombin assays were performed at room temperature, in 0.02 M TrisHCl buffer, pH 7.5, containing 0.15 M NaCl. The rates of hydrolysis of the para-nitroanilide substrate S-2765 (Chromogenix) for factor Xa, and the substrate Chromozym TH (Boehringer Mannheim) for thrombin following preincubation of the enzyme with inhibitor for 5 minutes at room temperature, and were determined using the Softmax 96-well plate reader (Molecular Devices), monitored at 405 nm to measure the time dependent appearance of p-nitroaniline.

In a further assay the target is TPA (Homo sapiens, UniProt P00750). The assay is described as follows: TPA protease inhibition assay.
The target of another assay is PLASMIN (Homo sapiens, UniProt P00747). The assay is described as follows: plasmin protease inhibition assay.
A further assay addresses factor Xa (Homo sapiens, UniProt P00742). In words: factor Xa amidolytic assay (chromogenic substrate S-2765). As to the method: as §1, §2
The test system of another assay is KALLIKREIN
In words: kallikrein protease inhibition assay.

Another assay has as its target T2, TRYPSIN (Bos taurus, UniProt P00760).
T2 construct: gene PRSS1
T2 sequence (P00760 24-246): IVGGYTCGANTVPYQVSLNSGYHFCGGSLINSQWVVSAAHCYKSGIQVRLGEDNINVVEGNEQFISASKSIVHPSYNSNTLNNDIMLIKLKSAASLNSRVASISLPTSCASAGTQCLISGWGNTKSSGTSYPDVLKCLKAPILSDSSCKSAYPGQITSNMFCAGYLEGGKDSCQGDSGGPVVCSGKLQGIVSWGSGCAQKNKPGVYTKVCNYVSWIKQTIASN
In words: trypsin protease inhibition assay.

prothrombinase complex, sequence (P00742 235-488 limits assumed): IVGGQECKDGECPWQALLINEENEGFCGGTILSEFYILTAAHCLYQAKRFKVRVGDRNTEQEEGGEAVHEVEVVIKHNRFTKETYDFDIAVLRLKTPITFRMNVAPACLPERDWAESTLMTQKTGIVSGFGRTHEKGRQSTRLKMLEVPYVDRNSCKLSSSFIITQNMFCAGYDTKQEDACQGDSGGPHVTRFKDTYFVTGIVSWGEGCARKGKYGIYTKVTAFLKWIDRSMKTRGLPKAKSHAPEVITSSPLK
prothrombinase complex, sequence (P00742 41-179 limits assumed): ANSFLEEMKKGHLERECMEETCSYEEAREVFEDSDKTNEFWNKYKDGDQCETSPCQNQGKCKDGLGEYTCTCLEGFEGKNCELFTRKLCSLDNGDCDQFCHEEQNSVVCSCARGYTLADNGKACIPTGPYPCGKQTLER
prothrombinase complex, sequence (P12259 29-737 partner limits assumed): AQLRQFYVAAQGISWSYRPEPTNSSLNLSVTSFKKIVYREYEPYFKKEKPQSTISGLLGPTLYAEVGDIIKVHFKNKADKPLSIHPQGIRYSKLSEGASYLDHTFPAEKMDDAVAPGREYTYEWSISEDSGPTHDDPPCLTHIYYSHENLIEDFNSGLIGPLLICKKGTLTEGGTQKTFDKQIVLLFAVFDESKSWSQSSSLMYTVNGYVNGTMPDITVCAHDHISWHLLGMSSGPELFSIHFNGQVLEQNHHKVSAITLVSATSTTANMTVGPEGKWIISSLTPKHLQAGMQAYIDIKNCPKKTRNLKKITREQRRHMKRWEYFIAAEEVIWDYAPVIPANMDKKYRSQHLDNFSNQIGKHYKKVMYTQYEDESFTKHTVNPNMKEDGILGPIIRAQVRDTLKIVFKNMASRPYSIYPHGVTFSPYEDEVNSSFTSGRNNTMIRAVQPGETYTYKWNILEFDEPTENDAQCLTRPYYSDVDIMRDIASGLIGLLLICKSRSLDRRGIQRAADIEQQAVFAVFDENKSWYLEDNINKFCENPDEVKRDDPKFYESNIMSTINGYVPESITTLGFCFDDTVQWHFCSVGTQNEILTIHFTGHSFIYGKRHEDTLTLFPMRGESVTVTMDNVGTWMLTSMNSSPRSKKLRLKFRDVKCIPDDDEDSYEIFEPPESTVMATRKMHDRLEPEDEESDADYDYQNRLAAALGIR
prothrombinase complex, sequence (P12259 1574-2224 partner limits assumed): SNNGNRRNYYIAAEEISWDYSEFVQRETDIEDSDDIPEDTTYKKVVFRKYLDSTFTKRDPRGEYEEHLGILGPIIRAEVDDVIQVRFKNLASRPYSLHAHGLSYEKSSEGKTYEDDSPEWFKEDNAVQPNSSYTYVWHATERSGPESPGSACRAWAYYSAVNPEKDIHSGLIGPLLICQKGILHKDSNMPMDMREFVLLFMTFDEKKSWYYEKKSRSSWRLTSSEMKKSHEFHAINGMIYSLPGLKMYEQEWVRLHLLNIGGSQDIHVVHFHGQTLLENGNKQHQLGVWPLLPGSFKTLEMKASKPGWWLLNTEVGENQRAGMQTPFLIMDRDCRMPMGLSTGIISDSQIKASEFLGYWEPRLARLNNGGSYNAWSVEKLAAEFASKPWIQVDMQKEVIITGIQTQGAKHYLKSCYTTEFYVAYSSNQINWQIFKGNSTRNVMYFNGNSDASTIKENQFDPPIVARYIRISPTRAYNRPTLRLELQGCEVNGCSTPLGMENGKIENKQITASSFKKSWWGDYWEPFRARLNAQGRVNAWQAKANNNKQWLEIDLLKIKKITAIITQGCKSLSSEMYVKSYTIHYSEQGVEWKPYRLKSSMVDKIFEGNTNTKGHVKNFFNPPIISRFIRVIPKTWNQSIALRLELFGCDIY
factor Xa, sequence (P00742 235-488 limits assumed): as the sequence (P00742 235-488 limits assumed) above
factor Xa, sequence (P00742 41-179 limits assumed): as the sequence (P00742 41-179 limits assumed) above
APC, sequence (P04070 212-461 limits assumed): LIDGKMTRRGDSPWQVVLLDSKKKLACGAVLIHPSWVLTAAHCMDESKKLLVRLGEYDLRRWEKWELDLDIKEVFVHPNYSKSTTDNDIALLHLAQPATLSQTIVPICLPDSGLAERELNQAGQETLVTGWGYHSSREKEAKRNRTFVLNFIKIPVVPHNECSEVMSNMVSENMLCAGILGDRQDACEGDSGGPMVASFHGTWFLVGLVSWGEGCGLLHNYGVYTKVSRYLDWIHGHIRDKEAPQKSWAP
APC, sequence (P04070 43-197 limits assumed): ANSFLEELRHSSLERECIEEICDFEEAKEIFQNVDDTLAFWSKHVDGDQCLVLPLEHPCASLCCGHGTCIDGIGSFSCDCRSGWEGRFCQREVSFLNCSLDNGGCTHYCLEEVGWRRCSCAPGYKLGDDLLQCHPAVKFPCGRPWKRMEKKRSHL
TPA, sequence (P00750 36-562, species assumed): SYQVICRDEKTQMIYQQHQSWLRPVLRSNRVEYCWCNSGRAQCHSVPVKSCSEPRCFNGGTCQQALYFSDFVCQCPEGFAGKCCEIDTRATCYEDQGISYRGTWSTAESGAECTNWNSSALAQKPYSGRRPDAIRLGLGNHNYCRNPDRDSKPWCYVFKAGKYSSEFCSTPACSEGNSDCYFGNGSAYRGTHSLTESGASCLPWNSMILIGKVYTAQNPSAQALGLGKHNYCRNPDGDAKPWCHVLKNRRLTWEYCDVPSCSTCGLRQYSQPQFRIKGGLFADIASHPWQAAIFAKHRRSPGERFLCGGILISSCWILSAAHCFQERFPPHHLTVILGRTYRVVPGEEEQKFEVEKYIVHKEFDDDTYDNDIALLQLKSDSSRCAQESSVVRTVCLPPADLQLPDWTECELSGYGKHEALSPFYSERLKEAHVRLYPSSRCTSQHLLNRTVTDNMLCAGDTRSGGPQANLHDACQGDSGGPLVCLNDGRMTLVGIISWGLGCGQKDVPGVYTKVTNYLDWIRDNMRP
PLASMIN, sequence (P00747 581-810 limits assumed, species assumed): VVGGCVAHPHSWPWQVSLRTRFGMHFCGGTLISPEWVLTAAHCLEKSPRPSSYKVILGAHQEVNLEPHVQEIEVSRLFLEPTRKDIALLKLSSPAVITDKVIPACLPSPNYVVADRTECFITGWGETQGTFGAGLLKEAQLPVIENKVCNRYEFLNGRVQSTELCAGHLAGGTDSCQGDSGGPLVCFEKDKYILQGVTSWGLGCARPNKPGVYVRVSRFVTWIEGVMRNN
PLASMIN, sequence (P00747 97-580 limits assumed, species assumed): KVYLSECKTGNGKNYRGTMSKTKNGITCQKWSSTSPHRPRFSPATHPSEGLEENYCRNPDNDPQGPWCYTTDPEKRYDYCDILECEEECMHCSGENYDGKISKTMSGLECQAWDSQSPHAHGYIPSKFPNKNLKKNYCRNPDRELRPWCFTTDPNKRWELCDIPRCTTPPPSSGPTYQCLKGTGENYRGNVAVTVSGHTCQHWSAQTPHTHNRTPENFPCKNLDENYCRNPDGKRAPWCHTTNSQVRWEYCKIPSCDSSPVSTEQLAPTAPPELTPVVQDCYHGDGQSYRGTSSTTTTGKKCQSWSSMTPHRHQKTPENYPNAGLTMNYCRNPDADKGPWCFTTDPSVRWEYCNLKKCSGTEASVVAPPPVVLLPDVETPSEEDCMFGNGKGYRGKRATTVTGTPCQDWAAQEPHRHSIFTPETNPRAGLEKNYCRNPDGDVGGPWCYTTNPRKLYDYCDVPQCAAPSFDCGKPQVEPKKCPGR

In the case of `CC(C)=C1C(=O)N(Cc2ccc3ccc(C(=N)N)cc3c2)c2ccc(OC3CCN(C(=N)N)CC3)cc21` [Example 6], the IC50 (commonly the point on the concentration scale where inhibition reaches its midpoint) against APC was 3060 nM; on prothrombinase complex, 19.8 nM; at thrombin, 19500 nM; on TPA it was 28500 nM; on PLASMIN it was 880 nM; against factor Xa it was 15.1 nM. Further, the results for the IC50 in the assay on KALLIKREIN and at TRYPSIN were 304 nM and 17.6 nM, respectively.

Take `CC(=N)N1CCC(Oc2ccc3c(c2)C(C(C)C)C(=O)N3Cc2ccc3ccc(C(=N)N)cc3c2)CC1` (stereo not shown) [Example 8]: the IC50 at APC was found to be 389 nM; on prothrombinase complex, 36.3 nM; at thrombin, 4710 nM; at TPA it was 18100 nM; on PLASMIN it was 628 nM; on factor Xa, 18.7 nM. Also, the 50% inhibitory concentration (IC50) came out at 334 nM in the assay with KALLIKREIN and 4.92 nM against TRYPSIN.

`CC1(C)C(=O)N(Cc2ccc3ccc(C(=N)N)cc3c2)c2ccc(OC3CCN(C(=N)N)CC3)cc21` [Example 5]: the IC50 against APC is 683 nM; at prothrombinase complex it was 264 nM; at thrombin it was 4530 nM; against TPA, 19500 nM; against PLASMIN, 1410 nM; on factor Xa, 72.5 nM. In addition, the IC50 with KALLIKREIN came to 535 nM; against TRYPSIN it was 6.39 nM.

`CC(=N)N1CCC(Oc2ccc3c(c2)C(CC(=O)O)C(=O)N3Cc2ccc3ccc(C(=N)N)cc3c2)CC1` (stereo not shown) [Example 13]: the IC50 against APC came out at 9940 nM; at prothrombinase complex it was 90.4 nM; on thrombin, 500000 nM; against TPA, 37000 nM; against PLASMIN it was 2130 nM; at factor Xa it was 53.6 nM. Further, the concentration for half-maximal inhibition (IC50) in the assay with KALLIKREIN amounted to 1590 nM; against TRYPSIN it was 140 nM.

In the case of `CC(=N)N1CCC(Oc2ccc3c(c2)/C(=C/C(=O)O)C(=O)N3Cc2ccc3ccc(C(=N)N)cc3c2)CC1` [Example 12], the IC50 was 6660 nM against APC; 117 nM on prothrombinase complex; 240000 nM on thrombin; 62100 nM against TPA; 1250 nM against PLASMIN; 17.4 nM against factor Xa. Besides, the results for the IC50 in the assay on KALLIKREIN and on TRYPSIN were 2420 nM and 28.6 nM, respectively.

Turning to `CC(C)C1C(=O)N(Cc2ccc3ccc(C(=N)N)cc3c2)c2ccc(OC3CCN(C(=N)N)CC3)cc21` (stereo not shown) [Example 7], the IC50 against APC was 549 nM; on prothrombinase complex, 116 nM; at thrombin it was 4260 nM; against TPA, 27900 nM; against PLASMIN it was 734 nM; against factor Xa, 28.4 nM. The half-inhibitory concentration (IC50) with KALLIKREIN stood at 440 nM; on TRYPSIN, 3.47 nM.

As to `CC(=N)N1CCC(Oc2ccc3c(c2)C(C)(C)C(=O)N3Cc2ccc3ccc(C(=N)N)cc3c2)CC1` [Example 4], the half-maximal inhibitory concentration (IC50) against APC is 848 nM; at prothrombinase complex it was 163 nM; at thrombin it was 6970 nM; against TPA it was 17900 nM; at PLASMIN, 2210 nM; against factor Xa, 40.2 nM. For the same molecule, the values for the IC50 in the assay on KALLIKREIN and at TRYPSIN were 606 nM and 13.5 nM, respectively.

Take `CC(=N)N1CCC(Oc2ccc3c(c2)/C(=C/c2ccccc2)C(=O)N3Cc2ccc3ccc(C(=N)N)cc3c2)CC1` [Example 9]: the IC50 at APC worked out at 954 nM; at prothrombinase complex it was 8.4 nM; on thrombin it was 28000 nM; at TPA it was 26600 nM; at PLASMIN, 319 nM; at factor Xa, 2.82 nM. In addition, the IC50 in the assay with KALLIKREIN was 128 nM; against TRYPSIN, 8.1 nM.

Take `CC(=N)N1CCC(Oc2ccc3c(c2)/C(=C/c2ccc(F)cc2)C(=O)N3Cc2ccc3ccc(C(=N)N)cc3c2)CC1` [Example 10]: the IC50 stood at 1550 nM against APC; 19.3 nM on prothrombinase complex; 20000 nM at thrombin; 38500 nM on TPA; 407 nM on PLASMIN; 5.92 nM on factor Xa. Besides, the results for the half-maximal inhibitory concentration (IC50) in the assay with KALLIKREIN and on TRYPSIN were 201 nM and 10.4 nM, respectively.

`CC(=N)N1CCC(Oc2ccc3c(c2)CC(=O)N3Cc2ccc3ccc(C(=N)N)cc3c2)CC1` [Example 1]: the IC50 on APC was 5180 nM; at prothrombinase complex, 504 nM; on thrombin, 72500 nM; at TPA it was 18300 nM; against PLASMIN, 2460 nM; on factor Xa, 13 nM. Moreover, the IC50 is 307 nM in the assay on KALLIKREIN and 62.1 nM against TRYPSIN.

`CC(=N)N1CCC(Oc2ccc3c(c2)/C(=C/c2ccc(Cl)cc2)C(=O)N3Cc2ccc3ccc(C(=N)N)cc3c2)CC1` [Example 11]: the IC50 at APC was 1480 nM; at prothrombinase complex it was 17.4 nM; on thrombin, 16100 nM; against TPA, 28700 nM; against PLASMIN, 309 nM; against factor Xa, 5.76 nM. The IC50 with KALLIKREIN was determined as 259 nM; at TRYPSIN, 30.3 nM.
